These results are taken from a melting point compilation (Tetko et al.; mined from patent text by program, amines drawn as free bases though some values may be those of a salt).

Consider `CCN(CC)CCN1C(=O)C(O)C(c2ccc(OC)cc2)Sc2c1ccc1ccccc21` (stereo unspecified), for which the melting point (in general, the temperature, or range, at which the solid turns liquid) lay in the range of 124 to 125 °C. Consider `COc1cc2c(C3C(=O)Nc4ccccc43)ncnc2cc1OCc1ccccc1` (stereo unspecified), for which the melting point fell in the range of 280 to 285 °C. `O=S(=O)(c1ccc(Cl)cc1)C(c1cccnc1)c1cc(F)ccc1F` (stereo unspecified): the melting point is 130 to 131 °C. Compound `Cc1oc(-c2ccccc2)nc1COc1ccc(CCCC#N)cc1` yielded a melting point of 73 to 74 °C. As for `CC(C)n1cc(-c2nc(C(N)=O)c(N)nc2-c2cccc(OC(F)(F)F)c2)ccc1=O`, the figure is 266 °C. With `CC(C)(C)OC(=O)Nc1cc(N2CCC(OC3CCCCO3)CC2)c(-c2ccc(F)cc2)cc1[N+](=O)[O-]` (racemic), the melting point lay in the range of 144 to 146 °C. Compound `COc1ccc2[nH]nc(N3CCNCC3)c2c1` returned a melting point of 163 to 169 °C. With `COC(=O)C1(Sc2cc(N3C(=O)C4=CCCCC4C3=O)c(F)cc2Cl)CCC1` (stereo unspecified), the melting point is 98 °C. Compound `COC(=O)c1cc(OC)c(OC)cc1C1=NCCc2ccccc21` had a melting point of 133 °C. `Cc1cc(Cl)ccc1Oc1ccc(C(=O)C=CC(=O)O)cc1` yielded a melting point of 138 to 139 °C.

With `CSc1ccc(-c2cc(C(F)(F)F)nn2-c2ccc(C#N)cc2)cc1`, the melting point is 145 to 147 °C. `COC(=O)Nc1ccc(O)c(Cl)c1` returned a melting point of 96 to 98 °C. As for `C=C(C(=O)O)c1cc(-c2cc3c(cc2C)C(C)(C)CCC3(C)C)ccc1OCCC`, the melting point is 125 to 126 °C. On to `COc1ccc(CN(C(=O)C2CCCc3ccc(OC)cc32)c2ccc(C(C)C)cc2)cc1` (stereo unspecified), for which the melting point was in the range of 83 to 85 °C. Compound `FC(F)(F)c1cccc(-c2ccc3nnc(C(F)(F)F)n3n2)c1` displayed a melting point of 189 °C.

The compound `CC(C)(C)OCCCNC(=O)c1n[nH]cc1NC(=O)c1ccccn1` registered a melting point of 193 to 194 °C. The compound `Cc1nsc(N=Nc2ccc(N(CCO)CCO)cc2NC(=O)C(C)C)c1C#N` showed a melting point of 152 to 154 °C. `CC1Cc2cc3c(cc2C(c2ccc([N+](=O)[O-])cc2)=NN1c1nc(=O)n(C)s1)OCO3` (stereo unspecified) displayed a melting point of 177 to 180 °C. The compound `CC(C)c1[nH]nc(C(N)=O)c1N` gave a melting point of 178 to 179 °C. Take `CC1=C(C(=O)OCCN(C)Cc2ccccc2)C(c2cccc3ncc(-c4ccc(C)cc4)cc23)C2=C(COC2=O)N1` (stereo unspecified): the melting point lay in the range of 173 to 175 °C. For the compound `CC(CC(=O)O)(c1ccc(OCc2ccc3ccccc3n2)cc1)c1ccc(OCc2ccc3ccccc3n2)cc1`, the melting point lay within 94 to 96 °C. `O=C(CCCNC(=O)C(=O)c1cn2c3c(cccc13)CCC2)NOCc1ccccc1`: the melting point lay in the range of 88 to 90 °C. Compound `COc1nc(Cl)nc(Cl)c1C#N` returned a melting point of 117 °C.

The compound `COC(=O)c1cc[nH]c1` showed a melting point of 78 to 81 °C.

For the compound `CCN1C(=O)C(C)(C)C(=O)N(C)c2cc(CN(CCn3cc(C)c4occc4c3=O)Cc3scnc3C)ccc21`, the melting point is 134 to 136 °C.

`CC(C)(C)c1ccc(-c2snnc2S)cc1` yielded a melting point greater than 150 °C. `COC(=O)c1c(C(=O)OC)c2n(c1C)Cc1c(c3ccccc3n1C)C2`: the melting point lay within 240 to 241 °C. Compound `CCOP(=O)(/C=C/c1cn(-c2ccccc2)nc1OCc1ccc(OCc2nc(-c3ccc(OC)c(C(=O)OC)c3)oc2C)c(OC)c1)OCC` yielded a melting point of 144 to 145 °C. Take `COC[C@@H]1C(=O)Nc2ccc(C(F)(F)F)cc2C[C@@H]1c1ccc(OC)cc1` (relative stereo): the melting point was 220 to 228 °C. `CC1CC2C3CCC4=CC(=O)C=CC4(C)C3=CCC2(C)C1(O)C(=O)CO` (stereo unspecified) yielded a melting point of 216 to 218 °C. On to `Fc1ccc(Oc2ccnc3cc(Cl)ccc23)cc1`, for which the melting point was 89 to 91 °C. The compound `COc1ncc(-c2cc(NC(=O)c3csc(CN4C[C@@H](C)O[C@@H](C)C4)n3)c3cn[nH]c3c2)cc1NS(=O)(=O)c1ccc(F)cc1F` came in with a melting point of 211 to 212 °C.

The compound `CCS(=O)c1cc2c(cc1OC)CCn1c3c(c(Br)c1-2)CCCCN(C(C)(C)C)C3=O` (stereo unspecified) gave a melting point of 140 to 145 °C. With `O=C(CCCCCNC(=O)[C@H](Cc1c[nH]c2ccccc12)NC(=O)CCCc1ccccc1)NO` the figure was 106 to 108 °C; with `COc1cc2c(cc1I)CCC2=O`, 140 °C; with `COc1cccc2c1CC(C(=O)NCCOc1ccc(C(=O)O)cc1)N2S(=O)(=O)c1ccc(-c2ccc(F)cc2Cl)cc1` (stereo unspecified), 190 to 204 °C. As to `COc1ccc2cc(-c3cnc(Cc4ccccc4)o3)ccc2c1`, the melting point is 122 to 124 °C.

The compound `Fc1ccc(-c2ncn(C3CCNCC3)c2-c2ccnc(Oc3ccccc3F)n2)cc1` yielded a melting point of 154 to 155 °C. As for `Cc1ccc(C)c2c1Cc1c(O)cccc1C2=O`, the figure is 172 to 178 °C; as for `COc1ccc(/C=N/Nc2ccccc2)cc1OC1CCCC1`, 138 to 140 °C.

The compound `COC(=O)c1nc(-c2ccccc2)ccc1O` showed a melting point of 100 to 101 °C. In turn, `CCn1cc(C(=O)O)c(=O)c2cc(Cl)c(N3CCCC3)cc21` yielded a melting point of 325 °C.

The compound `CCOc1nn(Cc2ccc(Cl)cc2Cl)cc1CCCOc1nn(-c2ccccc2)cc1CCC(=O)O` returned a melting point of 114 to 118 °C.

On to `NCC1Cc2cc(C(F)(F)F)cc(-c3ccc(F)cc3)c2O1` (stereo unspecified), for which the melting point is greater than 250 °C.

In the case of `CCCCCCc1cc(CO)c(-c2ccccc2)c(-c2ccccc2)c1CO`, the melting point fell in the range of 136 to 137 °C. As for `Cc1nnc(-c2ccc3occ(-c4ccc(S(C)(=O)=O)c(C)c4)c3c2)o1`, the figure is 173 to 174 °C; as for `CCCCCS(=O)(=O)NC(=O)/C=C/c1ccc(OCCC2OCCO2)cc1Oc1ncc(C(F)(F)F)cc1Cl`, 116 to 118 °C. As to `O=C(O)c1ccc(-c2cc3ccccc3[nH]c2=S)cc1`, the melting point is greater than 300 °C. `N#Cc1nc(-c2ccc(O)cc2)cs1` yielded a melting point of 186 to 197 °C. Turning to `CC(C)(C)OC(=O)C(Cc1ccc(Cl)cc1)N=C(c1ccccc1)c1ccccc1` (stereo unspecified), the melting point lay in the range of 102 to 103 °C.

Compound `O=CN1CCc2cc(OCC3CO3)ccc2C1` (stereo unspecified) registered a melting point of 78 to 79 °C. In turn, `COc1ccc(CCN(C)CCCOc2ccc(NC(=O)c3cccc4c(=O)c5ccccc5[nH]c34)cc2)cc1` came in with a melting point of 160 °C. For the compound `COc1ccc(-c2c(CBr)c3ccc(OC)cc3oc2=O)c(OC(C)=O)c1`, the melting point lay within 132 to 133 °C. Compound `Fc1ccc(C2Cc3cnc(NCCCN4CCCCC4)nc3-c3ccccc32)cc1` (stereo unspecified) came in with a melting point of 60 to 62 °C. Compound `O=C(c1ccc(Oc2ccc(C(F)(F)F)cc2Cl)cc1)C(Cl)Cl` showed a melting point of 41 to 42 °C. Turning to `C#CCOc1ccc2ccccc2c1COC(=O)C1CC1`, the melting point lay within 68 to 73 °C. On to `Cc1cc(C2(C(F)(F)F)CC(c3ccc(F)cc3)=NO2)ccc1N1C(=O)c2cccc([N+](=O)[O-])c2C1=O` (stereo unspecified), for which the melting point lay within 221 to 222 °C. As to `CC(=O)C(C(C)=O)C(=O)NS(=O)(=O)c1ccc(C)cc1`, the melting point fell in the range of 137 to 140 °C. Compound `Cc1ccc(C=CC(=O)NC(C)c2ccc(NS(C)(=O)=O)c(F)c2)cc1C` (stereo unspecified) yielded a melting point of 212 to 213 °C. In turn, `c1ccc(-c2cccc(-n3cnc4cccnc43)c2)cc1` came in with a melting point of 89 to 91 °C. `CCCc1nc2c(N)nc3ccc(-c4ccccc4CO)cc3c2s1` came in with a melting point of 194 to 196 °C. With `Cn1c(C(=O)O)cc2c(OC[C@@H](O)CN3CCC(c4ccc5ccccc5c4)CC3)cccc21` the figure was 158 to 161 °C; with `CCOC(=O)CSc1nc(Nc2ccc(OC)c(Cl)c2)cc(-c2ccccc2)n1`, 155 °C; with `NC(=O)Cc1cc(Oc2ccc3c(ccn3C(=O)Nc3ccc(CN4CCN(C5CC5)CC4)c(C(F)(F)F)c3)c2)ncn1`, 122 to 126 °C. As to `CCc1cc(CC)c(N)cc1N`, the melting point was in the range of 49 to 51 °C. For `CCOC(=O)C(=O)CC(=O)c1cn(Cc2ccc(F)cc2)c2c(F)cccc2c1=O`, the melting point is 179 to 180 °C. With `Cc1[nH]c2ccc(F)cc2c1C(=O)NC1CCN(Cc2ccccc2)CC1` the figure was 166 to 169 °C; with `COc1cccc(CN2CCC3(CCc4c3n(C)c3ccccc43)CC2)c1`, 100 to 101 °C; with `O=S1(=O)N=C(n2ccnc2)Nc2cc(F)c(F)cc21`, 264 to 266 °C. `Cc1cc(COc2ccc(Cl)cc2CN)on1` registered a melting point of 32 to 35 °C. `O=C(N=CNO)c1nccc2c1[nH]c1ccccc12`: the melting point was 235 to 240 °C. Turning to `CSc1nc(N)c(C#N)nc1C#N`, the melting point is 250 to 252 °C. Consider `CN(C)c1cc(S(=O)(=O)c2ccccc2)cc(Br)n1`, for which the melting point was 128 to 130 °C. With `Fc1ccc(-c2ccn(CC3CCCNC3)c2-c2ccncc2)cc1` (stereo unspecified) the figure was 134 to 135 °C. As for `COc1cc(NC(=O)CC23CC4CC(CC(C4)C2)C3)cc(OC)c1`, the figure is 144 to 146 °C. With `CCOC(=O)Cc1coc2c(OC)ccc(C(=O)Cc3ccncc3)c12` the figure was 111 to 117 °C. For the compound `CN(C)CCc1cc2occc2c(=O)[nH]1`, the melting point fell in the range of 97.5 to 98 °C. `COc1ccc(N2CCN(C)CC2)c2c1OCC(C(=O)Nc1ccc(N3CCOCC3)cc1)C2` (stereo unspecified): the melting point was 202 to 204 °C.

As for `CCOC=C(C#N)C(=O)c1cc(F)c(F)c(F)c1F`, the melting point was 99 to 101 °C. `CCCn1nc2c(N)nc3ccccc3c2c1CCCCO` yielded a melting point of 135 to 136 °C. The compound `COc1ccc(C(=O)NCC(=O)N2c3ccccc3N(Cc3ccccc3)C(=O)[C@H]3CCC[C@H]32)cc1OC` (relative stereo) had a melting point of 174 to 176 °C. For the compound `CN(C)c1c(Cl)cc(C(O)C#Cc2ccc(C(=O)O)cc2)cc1C(C)(C)C` (stereo unspecified), the melting point amounted to 120 °C.

Compound `COC(=O)C1=C(C)NC(C)=C(C(=O)OC)C1c1cccc(NC(=O)C(F)(F)F)c1` came in with a melting point of 231 to 232 °C. `CNc1c2c(nc3ccc([N+](=O)[O-])cc13)CCCC2=O` came in with a melting point of 208 °C.

For `CCCCCCC(O)CNCCO` (stereo unspecified), the melting point turned out to be 45 °C. With `CC1Cc2cc3c(cc2C1)CC(C(=N)NO)C3` the figure was 194 to 195 °C.
